Data: paper PMC12030627, “Radioiodinated Bicyclic RGD Peptide Derivatives for Enhanced Tumor Accumulation” (Pharmaceuticals, 2025)
“And” between values parts separate entries of the source, which are not always exact repeats. Equal entries are not always repeated. Starred links: 1 amine or outer side, 2 acyl side, 3 side chain; linkers in the order of their positions; H or OH if unused. Positions of bridges follow the written chain, without caps; N, C: chain ends. Non-standard residues stand in square brackets, D forms with d. Residues, ends and D or L forms follow the SMILES beside them. *: point of attachment. Butanoyl(4-(4-I-phenyl)) = O=C(CCCc1ccc(I)cc1)*; TBMB = c1c(C[*:1])cc(C[*:3])cc1C[*:2]; Palmitoyl = CCCCCCCCCCCCCCCC(=O)*; Benzoyl(3-I) = O=C(c1cccc(I)c1)*; 4Abz = Nc1ccc(C(=O)O)cc1

Columns and labels:
His-tagged integrin α5β1 = biological target: T1, His-tagged integrin α5β1 (Homo sapiens, UniProt P05556+P08648); test: In vitro selectivity assay, His-tag Dynabeads pulldown, integrin α5β1; format: binding; settings: cyclo-(RGDfK) 25 μM blocking; 2 h incubation at 37 °C
T1 construct: purchased Sino Biological CT014-H2508H
T1 sequence (P08648 42-995 limits assumed): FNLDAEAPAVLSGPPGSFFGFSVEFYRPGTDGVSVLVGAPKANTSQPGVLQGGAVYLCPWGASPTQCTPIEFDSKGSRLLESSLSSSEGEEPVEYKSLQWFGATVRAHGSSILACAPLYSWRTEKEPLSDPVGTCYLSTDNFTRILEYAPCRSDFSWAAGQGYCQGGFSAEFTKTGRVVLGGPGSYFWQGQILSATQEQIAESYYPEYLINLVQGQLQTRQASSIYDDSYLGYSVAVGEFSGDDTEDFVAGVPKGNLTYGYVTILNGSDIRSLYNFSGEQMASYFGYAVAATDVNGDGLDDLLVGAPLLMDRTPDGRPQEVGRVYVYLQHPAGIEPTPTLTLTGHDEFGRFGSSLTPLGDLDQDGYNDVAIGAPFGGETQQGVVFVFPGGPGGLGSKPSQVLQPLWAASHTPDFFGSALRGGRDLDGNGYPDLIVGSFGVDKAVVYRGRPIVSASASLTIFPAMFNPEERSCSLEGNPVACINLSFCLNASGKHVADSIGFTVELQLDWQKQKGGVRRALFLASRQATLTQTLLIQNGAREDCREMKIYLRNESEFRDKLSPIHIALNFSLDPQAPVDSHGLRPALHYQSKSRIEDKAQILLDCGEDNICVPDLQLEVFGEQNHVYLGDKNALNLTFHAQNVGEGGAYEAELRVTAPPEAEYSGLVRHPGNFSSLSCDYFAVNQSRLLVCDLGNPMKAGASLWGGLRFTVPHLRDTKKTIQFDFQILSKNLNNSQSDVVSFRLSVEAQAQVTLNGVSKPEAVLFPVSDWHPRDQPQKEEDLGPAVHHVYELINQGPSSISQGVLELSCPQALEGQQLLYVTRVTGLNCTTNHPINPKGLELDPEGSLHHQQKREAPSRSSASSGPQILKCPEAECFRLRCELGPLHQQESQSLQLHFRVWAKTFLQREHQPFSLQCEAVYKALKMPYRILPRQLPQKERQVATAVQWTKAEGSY
T1 sequence (P05556 21-728 limits assumed): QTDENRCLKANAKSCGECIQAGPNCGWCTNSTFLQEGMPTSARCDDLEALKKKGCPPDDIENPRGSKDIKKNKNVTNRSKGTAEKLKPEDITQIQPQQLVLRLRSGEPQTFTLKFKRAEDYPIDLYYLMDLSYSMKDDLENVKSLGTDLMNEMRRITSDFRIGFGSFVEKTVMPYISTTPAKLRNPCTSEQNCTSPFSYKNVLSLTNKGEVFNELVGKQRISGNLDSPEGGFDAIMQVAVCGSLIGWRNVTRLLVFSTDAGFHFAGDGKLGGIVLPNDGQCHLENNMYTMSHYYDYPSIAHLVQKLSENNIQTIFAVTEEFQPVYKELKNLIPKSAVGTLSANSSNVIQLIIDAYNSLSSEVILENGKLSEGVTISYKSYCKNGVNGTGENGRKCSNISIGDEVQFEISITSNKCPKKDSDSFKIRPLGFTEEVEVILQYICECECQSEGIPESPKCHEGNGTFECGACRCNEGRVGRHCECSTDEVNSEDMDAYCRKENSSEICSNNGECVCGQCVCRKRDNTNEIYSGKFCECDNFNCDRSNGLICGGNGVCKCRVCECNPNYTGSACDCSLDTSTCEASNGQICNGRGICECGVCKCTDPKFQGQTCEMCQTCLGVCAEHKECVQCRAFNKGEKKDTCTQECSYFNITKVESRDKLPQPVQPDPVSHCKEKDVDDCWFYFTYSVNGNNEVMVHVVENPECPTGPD
Protocol: Binding assays were conducted following our previously reported method, using the Dynabeads™ His-Tag Isolation and Pulldown protocol (Thermo Fisher Scientific, Tokyo, Japan). Briefly, [^125I]bcRGDpal or [^125I]bcRGDiba (10 kBq/sample) was incubated at 37 °C for 2 h in 200 μL of incubation buffer (3.25 mM sodium phosphate, 70 mM NaCl, 0.01% Tween 20, pH 7.4) with 10 pmol of His-tagged integrin αVβ3, αVβ5, or α5β1 proteins (αVβ3: IT3-H52E3, ACRO Biosystems, Newark, DE, USA; αVβ5: 2528-AV, R&D Systems, Minneapolis, MN, USA; α5β1: CT014-H2508H, Sino Biological, Beijing, China). For the inhibition group, cyclo(RGDfK) (25 μM, S7834, Selleck, Houston, TX, USA) was preincubated with the integrin protein for 30 min at 37 °C. Next, A 2× binding buffer (100 mM sodium phosphate, 600 mM NaCl, 0.01% Tween 20, pH 8.0) was mixed with the solution at a 1:1 volume ratio and incubated with 5 μL of magnetic beads at 37 °C for 10 min to enable protein immobilization. Following immobilization, the beads were rinsed three times with the binding buffer, and radioactivity was measured using a NaI well-type scintillation counter (2480 Wizard2; PerkinElmer Japan, Yokohama, Japan). Protein binding was expressed as %dose/nmol protein.

[1] = Octanol–water distribution coefficient (log D); format: physicochemical; settings: shake-flask 1-octanol/PBS(–) pH 7.4, 1.0 mL each (1:1), 40 kBq, vortexed 2 min, centrifuged 5000 rpm 5 min, radioactivity by γ-counter, mean of n = 4
Protocol: For log D determination, [^125I]bcRGD, [^125I]bcRGDpal, [^125I]bcRGDiba, or [^125I]bcRGDdimer (40 kBq) was dissolved in 1.0 mL PBS(–) (pH 7.4) and mixed with 1.0 mL 1-octanol (1:1, v/v). The mixture was vortexed for 2 min and centrifuged at 5000 rpm for 5 min. Radioactivity in 0.5 mL of each phase was measured using a γ-counter, and log D values were calculated based on the radioactivity distribution (n = 4).

[2] = Albumin binding, size-exclusion spin column elution after incubation with mouse plasma; format: in vitro ADME; settings: 37 kBq in 50 μL PBS(–) incubated 37 °C 10 min with 200 μL mouse plasma (male ddY); Sephadex G-50 Fine spin column, 2000 rpm 2 min; γ-counter; eluted/added radioactivity × 100
Protocol: (§1) To assess albumin binding, mouse plasma was obtained by centrifugation of whole blood from male ddY mice (9 weeks old). [^125I]bcRGD, [^125I]bcRGDpal, [^125I]bcRGDiba, or [^125I]bcRGDdimer (37 kBq) in 50 μL PBS(–) was incubated at 37 °C for 10 min with 200 μL of PBS(–), mouse plasma, or human serum albumin (HSA, 45 mg/mL in PBS(–); Wako Pure Chemical Industries, Osaka, Japan). The mixtures were applied to gel filtration spin columns (Sephadex G-50 Fine; Cytiva, Tokyo, Japan), centrifuged (2000 rpm, 2 min), and radioactivity in the eluted fraction was measured with a γ-counter. The high molecular weight fraction was calculated as the elution ratio = (radioactivity in elution)/(added radioactivity) × 100 (%).

[3] = biological target: T2, human serum albumin (HSA) (Homo sapiens, UniProt P02768); test: Albumin binding, size-exclusion spin column elution after incubation with HSA; format: in vitro ADME; settings: 37 kBq in 50 μL PBS(–) incubated 37 °C 10 min with 200 μL HSA 45 mg/mL in PBS(–); Sephadex G-50 Fine spin column, 2000 rpm 2 min; γ-counter; eluted/added radioactivity × 100
T2 construct: purchased Wako Pure Chemical Industries
T2 sequence (P02768 25-609): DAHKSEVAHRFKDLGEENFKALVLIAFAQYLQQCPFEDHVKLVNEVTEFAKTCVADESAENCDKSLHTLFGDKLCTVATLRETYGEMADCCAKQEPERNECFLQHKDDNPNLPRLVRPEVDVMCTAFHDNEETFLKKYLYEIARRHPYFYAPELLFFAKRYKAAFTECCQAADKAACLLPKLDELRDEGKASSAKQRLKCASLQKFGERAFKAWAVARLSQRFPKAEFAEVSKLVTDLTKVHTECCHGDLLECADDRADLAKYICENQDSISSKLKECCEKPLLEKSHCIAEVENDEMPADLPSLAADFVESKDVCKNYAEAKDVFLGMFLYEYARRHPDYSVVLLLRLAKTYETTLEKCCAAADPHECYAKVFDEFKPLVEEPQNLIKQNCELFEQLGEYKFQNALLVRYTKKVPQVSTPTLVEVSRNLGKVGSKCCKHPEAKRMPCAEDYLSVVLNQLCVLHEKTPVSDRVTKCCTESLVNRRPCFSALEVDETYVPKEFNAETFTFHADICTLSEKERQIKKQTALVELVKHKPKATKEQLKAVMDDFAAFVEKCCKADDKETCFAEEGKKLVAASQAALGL
Protocol: as §1

SMILES | Radioactivity accumulation in α5β1 protein, treatment versus inhibitor group (His-tagged integrin α5β1) | logD [1] | Elution rate from size-exclusion resin (high molecular weight fraction), mouse plasma [2] [%] | Elution rate from size-exclusion resin (high molecular weight fraction), HSA [3] [%]
N=C(N)NCCC[C@@H]1NC(=O)[C@H]2CSCc3cc(cc(c3)CSC[C@H](C(N)=O)NC(=O)[C@H](CC(=O)O)NC(=O)CNC1=O)CSC[C@H](NC(=O)CNC(=O)[C@H](CO)NC(=O)c1ccc(NC(=O)CNC(=O)[C@H](CO)NC(=O)[C@@H]3CCCN3C(=O)[C@@H]3CCCN3C(=O)[C@@H]3CCCN3C(=O)[C@H](CCCCNC(=O)c3cccc(I)c3)NC(=O)CCCc3ccc(I)cc3)cc1)C(=O)N[C@@H](Cc1c[nH]cn1)C(=O)N1CCC[C@H]1C(=O)N[C@@H](CCC(N)=O)C(=O)N2 [[^125I]bcRGDiba] ({Butanoyl(4-(4-I-phenyl))}-K(Benzoyl(3-I))PPPSG[4Abz]SGCHPQ[dC]RGD[dC]-NH2; linker 10-14-18 via TBMB) | No differences | -0.97 | > 80 | 60
CCCCCCCCCCCCCCCC(=O)N[C@@H](CCCCNC(=O)c1cccc(I)c1)C(=O)N1CCC[C@H]1C(=O)N1CCC[C@H]1C(=O)N1CCC[C@H]1C(=O)N[C@@H](CO)C(=O)NCC(=O)Nc1ccc(C(=O)N[C@@H](CO)C(=O)NCC(=O)N[C@H]2CSCc3cc4cc(c3)CSC[C@@H](NC(=O)[C@H](CCC(N)=O)NC(=O)[C@@H]3CCCN3C(=O)[C@H](Cc3c[nH]cn3)NC2=O)C(=O)N[C@@H](CCCNC(=N)N)C(=O)NCC(=O)N[C@@H](CC(=O)O)C(=O)N[C@@H](C(N)=O)CSC4)cc1 [[^125I]bcRGDpal] (Palmitoyl-K(Benzoyl(3-I))PPPSG[4Abz]SGCHPQ[dC]RGD[dC]-NH2; linker 10-14-18 via TBMB) | No differences | 1.71 and > 1 | > 80 | 80
N=C(N)NCCC[C@@H]1NC(=O)[C@H]2CSCc3cc(cc(c3)CSC[C@H](C(N)=O)NC(=O)[C@H](CC(=O)O)NC(=O)CNC1=O)CSC[C@H](NC(=O)CNC(=O)[C@H](CO)NC(=O)c1ccc(NC(=O)CNC(=O)[C@H](CO)NC(=O)[C@@H]3CCCN3C(=O)[C@@H]3CCCN3C(=O)[C@@H]3CCCN3C(=O)CCc3cn(CC[C@H](NC(=O)CCNC(=O)c4cccc(I)c4)C(=O)N4CCC[C@H]4C(=O)N4CCC[C@H]4C(=O)N4CCC[C@H]4C(=O)N[C@@H](CO)C(=O)NCC(=O)Nc4ccc(C(=O)N[C@@H](CO)C(=O)NCC(=O)N[C@H]5CSCc6cc7cc(c6)CSC[C@@H](NC(=O)[C@H](CCC(N)=O)NC(=O)[C@@H]6CCCN6C(=O)[C@H](Cc6c[nH]cn6)NC5=O)C(=O)N[C@@H](CCCNC(=N)N)C(=O)NCC(=O)N[C@@H](CC(=O)O)C(=O)N[C@@H](C(N)=O)CSC7)cc4)nn3)cc1)C(=O)N[C@@H](Cc1c[nH]cn1)C(=O)N1CCC[C@H]1C(=O)N[C@@H](CCC(N)=O)C(=O)N2 [[^125I]bcRGDdimer] | – | -1.98 | 22 | 6
